pIC50: −log10 of the molar value.

What is called pIC50 is the IC50 on a negative log10 scale, so that one unit is a factor of ten. A high value points to a small IC50.

This assay in a line: Inhibition of bovine liver beta-glucosidase.

On to `C[C@@H]1CNC[C@@H](O)[C@@H](O)[C@@H]1O`, for which the pIC50 is 3.61.

For the origin of these results see BindingDB's records for doi:10.1016/j.bmc.2010.09.053 (Umr Cnrs 7201, 2012).
